compound: CC(C)(C)c1cc(NC(=O)Nc2ccc(-c3cn4c(n3)sc3cc(OCCN5CCOCC5)ccc34)cc2)no1 [Quizartinib] + O=C(c1cc(Cc2n[nH]c(=O)c3ccccc23)ccc1F)N1CCN(C(=O)C2CC2)CC1 [Olaparib] (partner 8 µM); assay: relative viability (nuclei count vs DMSO), 5 days (fraction); higher = more cells survive; details: first compound 0.001 µM
Method in brief: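 Lung cancer cell lines in 1536-well plates got either a single drug or a fixed anchor-drug dose together with five library-drug doses (not always all listed) in √10 steps, by pin tool, on the day after seeding. Nuclei were counted after 5 days, and relative viability is the treated-to-vehicle ratio of nuclei counts. Values are medians of duplicate plates.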

Going from NCI-H1666 to NCI-H23, the relative viability falls from 0.704 to 0.273.

First: NCI-H838
Second: NCI-H322M
The relative viability of the first is lower: 0.641 for the first, 0.769 for the second.

First: NCI-H1793
Second: NCI-H441
The relative viability of the first is higher: 0.765 for the first, 0.441 for the second.

NCI-H727 gave a relative viability of 0.66.

same assay, conditions: first compound 0.003162 µM

Going from NCI-H1395 to HCC-366, the relative viability falls from 0.455 to 0.369.

Compared with NCI-H1915, NCI-H2347 is higher in relative viability: 0.263 for the first, 0.518 for the second.

Going from LCLC-103H to ABC-1, the relative viability rises from 0.718 to 0.807.

Compared with NCI-H1734, HCC-78 is higher in relative viability: 0.557 for the first, 0.753 for the second.

Going from HCC-15 to HARA, the relative viability rises from 0.685 to 0.803.

Compared with NCI-H1975, NCI-H1944 is lower in relative viability: 0.77 for the first, 0.374 for the second.

First: NCI-H2126
Second: EMC-BAC-2
The relative viability of the first is higher: 0.915 for the first, 0.441 for the second.

Compared with NCI-H2170, NCI-H358 is lower in relative viability: 0.681 for the first, 0.6 for the second.

Going from LK-2 to HOP-62, the relative viability falls from 0.772 to 0.322.

First: PC-14
Second: NCI-H1993
The relative viability of the first is lower: 0.26 for the first, 1.24 for the second.

Compared with NCI-H2405, NCI-H3122 is lower in relative viability: 0.807 for the first, 0.637 for the second.

First: A-427
Second: LOU-NH91
The relative viability of the first is lower: 0.719 for the first, 0.885 for the second.

Going from NCI-H596 to NCI-H1666, the relative viability rises from 0.636 to 0.713.

First: NCI-H23
Second: NCI-H838
The relative viability of the first is lower: 0.269 for the first, 0.683 for the second.

Compared with NCI-H322M, NCI-H1793 is lower in relative viability: 0.721 for the first, 0.684 for the second.

Going from NCI-H441 to NCI-H727, the relative viability rises from 0.558 to 0.678.

same assay, conditions: first compound 0.01 µM

Compared with NCI-H1395, HCC-366 is lower in relative viability: 0.489 for the first, 0.332 for the second.

First: NCI-H1915
Second: NCI-H2347
The relative viability of the first is lower: 0.287 for the first, 0.701 for the second.

First: LCLC-103H
Second: ABC-1
The relative viability of the first is lower: 0.789 for the first, 0.845 for the second.

Compared with NCI-H1734, HCC-78 is higher in relative viability: 0.625 for the first, 0.899 for the second.

Compared with HCC-15, HARA is higher in relative viability: 0.676 for the first, 0.68 for the second.

Compared with NCI-H1975, NCI-H1944 is lower in relative viability: 0.87 for the first, 0.396 for the second.

Compared with NCI-H2126, EMC-BAC-2 is lower in relative viability: 0.896 for the first, 0.524 for the second.

Going from NCI-H2170 to NCI-H358, the relative viability falls from 0.656 to 0.585.

Going from LK-2 to HOP-62, the relative viability falls from 0.685 to 0.54.

Going from PC-14 to NCI-H1993, the relative viability rises from 0.252 to 1.07.

Compared with NCI-H2405, NCI-H3122 is lower in relative viability: 0.92 for the first, 0.653 for the second.

Going from A-427 to LOU-NH91, the relative viability rises from 0.687 to 0.931.

Going from NCI-H596 to NCI-H1666, the relative viability falls from 0.732 to 0.662.

Compared with NCI-H23, NCI-H838 is higher in relative viability: 0.372 for the first, 0.77 for the second.

Going from NCI-H322M to NCI-H1793, the relative viability rises from 0.739 to 0.855.

First: NCI-H441
Second: NCI-H727
The relative viability of the first is lower: 0.646 for the first, 0.843 for the second.

same assay, conditions: first compound 0.03162 µM

Going from NCI-H1395 to HCC-366, the relative viability falls from 0.444 to 0.328.

First: NCI-H1915
Second: NCI-H2347
The relative viability of the first is lower: 0.261 for the first, 0.57 for the second.

Going from LCLC-103H to ABC-1, the relative viability rises from 0.769 to 0.911.

Compared with NCI-H1734, HCC-78 is higher in relative viability: 0.605 for the first, 0.706 for the second.

Going from HCC-15 to HARA, the relative viability rises from 0.641 to 0.996.

First: NCI-H1975
Second: NCI-H1944
The relative viability of the first is higher: 0.784 for the first, 0.425 for the second.

First: NCI-H2126
Second: NCI-H2170
The relative viability of the first is higher: 0.984 for the first, 0.584 for the second.

First: LK-2
Second: HOP-62
The relative viability of the first is lower: 0.583 for the first, 0.619 for the second.

Going from PC-14 to NCI-H1993, the relative viability rises from 0.184 to 1.14.

Going from NCI-H2405 to NCI-H3122, the relative viability falls from 0.832 to 0.69.

Going from A-427 to LOU-NH91, the relative viability rises from 0.586 to 0.838.

Compared with NCI-H596, NCI-H1666 is higher in relative viability: 0.658 for the first, 0.678 for the second.

First: NCI-H23
Second: NCI-H838
The relative viability of the first is lower: 0.279 for the first, 0.678 for the second.

Compared with NCI-H322M, NCI-H1793 is higher in relative viability: 0.678 for the first, 0.808 for the second.

Compared with NCI-H441, NCI-H727 is higher in relative viability: 0.434 for the first, 0.708 for the second.

same assay, conditions: first compound 0.1 µM

First: NCI-H1395
Second: HCC-366
The relative viability of the first is higher: 0.512 for the first, 0.389 for the second.

Compared with NCI-H1915, NCI-H2347 is higher in relative viability: 0.253 for the first, 0.608 for the second.

First: LCLC-103H
Second: ABC-1
The relative viability of the first is lower: 0.819 for the first, 0.956 for the second.

First: NCI-H1734
Second: HCC-78
The relative viability of the first is lower: 0.642 for the first, 0.92 for the second.

First: HCC-15
Second: HARA
The relative viability of the first is lower: 0.69 for the first, 0.759 for the second.

Compared with NCI-H1975, NCI-H1944 is lower in relative viability: 0.791 for the first, 0.385 for the second.

Going from NCI-H2126 to EMC-BAC-2, the relative viability falls from 0.882 to 0.536.

Compared with NCI-H2170, NCI-H358 is higher in relative viability: 0.54 for the first, 0.67 for the second.

Compared with LK-2, HOP-62 is lower in relative viability: 0.644 for the first, 0.449 for the second.

First: PC-14
Second: NCI-H1993
The relative viability of the first is lower: 0.318 for the first, 1.07 for the second.

Going from NCI-H2405 to NCI-H3122, the relative viability falls from 0.902 to 0.676.

Compared with A-427, LOU-NH91 is higher in relative viability: 0.711 for the first, 1.01 for the second.

Going from NCI-H596 to NCI-H1666, the relative viability rises from 0.717 to 0.853.

Going from NCI-H23 to NCI-H838, the relative viability rises from 0.264 to 0.361.

Going from NCI-H322M to NCI-H1793, the relative viability rises from 0.825 to 0.835.

First: NCI-H441
Second: NCI-H727
The relative viability of the first is lower: 0.683 for the first, 0.769 for the second.

— the supplement of paper PMC10307832
